Data from US20170035787A1, “Fixed Dose Combination for Pain Relief Without Edema” (Autotelic LLC, priority 2014, published 2017).
Where “and” joins values, the source holds several entries; their conditions need not be identical. Equal entries are not always repeated. Entries after “also recorded” stand apart in the source; their conditions may differ. Blank lines part the entries; values can stand above or below the molecule they belong to.

Experiments:
[1] = Combined plots and meta analysis of published celecoxib pharmacokinetic data; assay type: in vivo, human
Source text: In other words, the most efficacious celecoxib dosage is not well defined among the elderly. The problem may be more widespread than expected as elderly here is defined as patients greater than >40 or >50, not the usually definition of elderly (age greater >65).

[2] = in vivo
[3] = cited from earlier work
[4] = CELEBREX Package Insert table; cited from earlier work
[5] = Applicant's meta analysis of reported edema rates in osteoarthritic populations by celecoxib dose

- drug exposure as defined by AUC, elderly vs younger patients ([1]; age-based subgroups, FIG. 3): highly significant differences
- % Edema ([2]; human): 20%
- upper limit and average edema event rate ([5]; 400 mg/day vs 100 or 200 mg/day): more than twice as high
- edema event rates ([5]; 100 vs 200 mg/day dose): remarkably similar edema event rates
SMILES: Cc1ccc(-c2cc(C(F)(F)F)nn2-c2ccc(S(N)(=O)=O)cc2)cc1 [celecoxib]
- variability of pharmacokinetics; 100 mg vs 200 mg dose PK results ([1]; FIG. 2, listed as CELEBREX®): unexpectedly high; also recorded: substantial overlap
- effect of anti-hypertensive class on incidence of edema in patients taking CELEBREX [2]: steady increase in incidence of edema
- incidence of edema in patients taking CELEBREX with or without diuretic [2]: steady increase in incidence of edema
- incidence of edema with vs without CELEBREX by arthritis group [2]: increased when patients was taken CELEBREX® for all groups except for RA and no Arthritis free patients
- incidence of edema ([3]; two trials with much higher incidence): 23% and 38%
- incidence of edema at any site ([3]; usual incidence in clinical trials of celecoxib): about 3%
- patients treated who develop edema [4]: 2.1%

SMILES: O=C(O)Cc1ccccc1Nc1c(Cl)cccc1Cl [diclofenac]
- patients treated who develop edema [4]: 1.0%

SMILES: COc1ccc2cc([C@H](C)C(=O)O)ccc2c1 [naproxen]
- patients treated who develop edema [4]: 2.1%

SMILES: CC(C)Cc1ccc(C(C)C(=O)O)cc1 (centres unmarked) [ibuprofen]
- patients treated who develop edema [4]: 3.5%
